What was measured:
[1] = 298.15 K; 101.33 kPa; Liquid
[2] = xn = mol fraction of the nth substance listed; conditions: 298.15 K, 101.33 kPa, Liquid

CNC=O [N-methylformamide]
[1]
Conditions | mass density [kg/m3] | viscosity [mPa·s]
– | 998.8 | 1.681

CNC=O [N-methylformamide] + CN(C)C=O
[2]
Conditions | mass density [kg/m3] | viscosity [mPa·s]
x2 = 0.0497 | 995.4 | 1.618
x2 = 0.0997 | 991.9 | 1.524
x2 = 0.2002 | 985.5 | 1.373
x2 = 0.2999 | 979.4 | 1.274
x2 = 0.4001 | 973.6 | 1.171
x2 = 0.4999 | 968.1 | 1.085
x2 = 0.5999 | 963 | 1.006
x2 = 0.699 | 958 | 0.947
x2 = 0.8001 | 953.2 | 0.897
x2 = 0.9001 | 948.6 | 0.855
x2 = 0.95 | 946.4 | 0.84

CNC=O [N-methylformamide] + O
[2]
Conditions | mass density [kg/m3] | viscosity [mPa·s]
x1 = 0.0504 | 1003.2 | 1.174
x1 = 0.1001 | 1008.9 | 1.422
x1 = 0.2 | 1014.6 | 1.793
x1 = 0.2998 | 1016.3 | 2.001
x1 = 0.4002 | 1015.1 | 2.067
x1 = 0.4996 | 1012.2 | 2.04
x1 = 0.5996 | 1009.4 | 1.961
x1 = 0.6994 | 1006.1 | 1.878
x1 = 0.7999 | 1003.7 | 1.794
x1 = 0.8983 | 1000.9 | 1.734
x1 = 0.9498 | 999.7 | 1.707

CN(C)C=O [dimethylformamide]
[1]
Conditions | mass density [kg/m3] | viscosity [mPa·s]
– | 944.2 | 0.799

CN(C)C=O [dimethylformamide] + O
[2]
Conditions | mass density [kg/m3] | viscosity [mPa·s]
x1 = 0.05 | 996 | 1.31
x1 = 0.1001 | 996.8 | 1.728
x1 = 0.2 | 995.1 | 2.346
x1 = 0.299 | 991.6 | 2.491
x1 = 0.3998 | 984.4 | 2.273
x1 = 0.4997 | 975.9 | 1.878
x1 = 0.5993 | 968.4 | 1.532
x1 = 0.6995 | 960.7 | 1.243
x1 = 0.8 | 954.9 | 1.045
x1 = 0.8991 | 949.1 | 0.901
x1 = 0.9488 | 946.9 | 0.843
